Test results: patent US7771726B2, “Use of synthetic glycolipids as universal adjuvants for vaccines against cancer and infectious diseases” (New York University, priority 2003, dated 2010)

Key:
melanoma metastases = melanoma metastases disease model, activity compared to α-GalCer; type: in vivo, mice; conditions: disease model requiring Th1-type responses; relative to α-GalCer
Description: (§1) As reported in copending U.S. patent application Ser. No. 10/206,155, α-Galactosylceramide (α-GalCer) is a glycolipid ligand for natural killer T (NKT) cells, which respond to the glycolipid and produce both interferon (IFN)-γ and interleukin (IL)-4. […] It has now been discovered that synthetic C-glycoside analogs of α-GalCer of general formula (I) act as an NKT cell ligand and display 100-1000 fold higher activity against tumor and malaria, by preferentially inducing the production of Th1-type cytokines, IFN-γ and IL-12, in vivo.

murine NKT cells = assay: stimulation of murine NKT cells; type: cell-based
[1] = tested on: malaria antigen-specific CD8+ T-cell responses; assay: adjuvant activity with suboptimal dose of recombinant adenovirus expressing a malarial antigen (FIG. 2); type: in vivo, mice
Description: FIG. 2 depicts the adjuvant activity of CRONY 101, and the enhancement of a malaria-specific CD8+ T-cell response elicited by a recombinant adenovirus expressing a malaria antigen; and
In FIG. 2, the number of IFN secreting CD8+ T cells per million splenocytes is greater for CRONY 101 than for α-GalCer.
Thus, co-administration of α-C-GalCer to mice immunized with a suboptimal dose of a recombinant adenovirus expressing a malarial antigen enhanced protective antimalaria immunity and the level of malaria antigen-specific CD8^+ T-cell responses. Coadministration of 1 ng of CRONY 101 was compared to administration of 1 μg of α-GalCer.

[2] = tested on: Gag-specific CD8+ and CD4+ T cell response; assay: adjuvant activity with DNA vaccine encoding an HIV Gag sequence (FIGS. 3A and 3B); type: in vivo; conditions: for Gag-specific CD8+ T cell response: FIG. 3A
Description: FIGS. 3A and 3B depict the adjuvant activity of α-GalCer and CRONY 101, and the enhancement of a Gag-specific CD8+ T-cell response elicited by a DNA vaccine encoding an HIV-Gag sequence.
Further studies used a naked DNA plasmid encoding an HIV Gag sequence, as a vaccine.

human NKT cells = assay: stimulation of human NKT cells; type: cell-based
malaria = malaria disease model in mice, activity compared to α-GalCer; type: in vivo; conditions: disease model requiring Th1-type responses; relative to α-GalCer
Description: as §1

[3] = tested on: Th1-type cytokines, IFN-γ and IL-12; Th2 cytokine, IL-4; assay: cytokine production in vivo after administration to mice; conditions: as compared to α-GalCer
Description: as §1

[4] = tested on: HIV specific CD4+/CD8+ T-cell responses; assay: adjuvant effects on DNA vaccination in mice (FIG. 1); type: in vivo
Description: FIG. 1 depicts the adjuvant effects of α-GalCer on DNA vaccination in mice, and the enhancement of HIV-specific CD4+/CD8+ T-Cell responses;
FIG. 1 depicts the adjuvant effects of the α-GalCer on DNA vaccination in mice.

[5] = tested on: human CD1d-restricted lymphocytes that express a semi-invariant TCR; conditions: Kawano et al., 1997; cited from earlier work
[6] = tested on: mouse CD1d-restricted lymphocytes that express a semi-invariant TCR; conditions: Kawano et al., 1997; cited from earlier work
[7] = co-administration, mice immunized with suboptimal dose of recombinant adenovirus
[8] = DNA vaccine encoding an HIV Gag sequence

CCCCCCCCCCCCCCCCCCCCCCCCCC(=O)N[C@@H](CCC1OC(CO)[C@H](O)C(O)[C@@H]1O)[C@H](O)[C@H](O)CCCCCCCCCCCCCC (stereo partly drawn) [CRONY 101, 3′S,4′S,5′R-3′-N-hexacosanoyl-4′,5′-dihydroxynonadecyl-α-C-D-galactopyranoside]
more potent activity than α-GalCer, melanoma metastases (melanoma metastases): 100 fold
stimulation of murine NKT cells (murine NKT cells): stimulate
increased number of malaria specific CD8+ cells ([1]; 1 ng of CRONY 101 as compared to 1 μg of α-GalCer): ⅚
number of IFN secreting CD8+ T cells per million splenocytes ([1]; FIG. 2, compared with α-GalCer): greater
adjuvant activity compared with α-GalCer ([1]; FIG. 2, recombinant adenovirus expressing a malaria antigen): more potent
level of malaria antigen-specific CD8+ T-cell responses [1, 7]: enhanced
protective antimalaria immunity [1, 7]: enhanced
Gag-specific CD8+ T cell response [2, 8]: enhances
Gag-specific CD4+ T cell response ([2]; FIG. 3B, DNA vaccine encoding a HIV-Gag sequence): enhancing
adjuvant activity compared with α-GalCer ([2]; FIGS. 3A and 3B, DNA vaccine encoding an HIV Gag sequence): more potent
stimulation of human NKT cells (human NKT cells): stimulate
more potent activity than α-GalCer, malaria (malaria): 1000 fold
population of the Th2 cytokine, IL-4 [3]: decreased
production of the Th1-type cytokines [3]: prolonged production

CCCCCCCCCCCCCCCCCCCCCCCCCC(=O)N[C@@H](CO[C@H]1O[C@H](CO)[C@H](O)[C@H](O)[C@H]1O)[C@H](O)[C@H](O)CCCCCCCCCCCCCC [α-GalCer, α-galactosyl-ceramide, reference compound]
stimulation of murine NKT cells (murine NKT cells): stimulate
HIV specific CD4+/CD8+ T-cell responses [4]: enhancement
concentrations at which recognized [5]: picomolar
Gag-specific CD8+ T cell response [2, 8]: enhancement
stimulation of human NKT cells (human NKT cells): stimulate
concentrations at which recognized [6]: picomolar
